Values quoted from earlier work as cited in patent US20240122955A1, “ORAL DELIVERY” (GUANGZHOU DAZHOU BIOMEDICINE LTD., priority 2021, published 2024).

Assays:
SGLT2 = biological target: T1, SGLT2 (Homo sapiens, UniProt P31639); settings: among the three FDA approved drugs canagliflozin, dapagliflozin, empagliflozin
T1 sequence (P31639 1-672): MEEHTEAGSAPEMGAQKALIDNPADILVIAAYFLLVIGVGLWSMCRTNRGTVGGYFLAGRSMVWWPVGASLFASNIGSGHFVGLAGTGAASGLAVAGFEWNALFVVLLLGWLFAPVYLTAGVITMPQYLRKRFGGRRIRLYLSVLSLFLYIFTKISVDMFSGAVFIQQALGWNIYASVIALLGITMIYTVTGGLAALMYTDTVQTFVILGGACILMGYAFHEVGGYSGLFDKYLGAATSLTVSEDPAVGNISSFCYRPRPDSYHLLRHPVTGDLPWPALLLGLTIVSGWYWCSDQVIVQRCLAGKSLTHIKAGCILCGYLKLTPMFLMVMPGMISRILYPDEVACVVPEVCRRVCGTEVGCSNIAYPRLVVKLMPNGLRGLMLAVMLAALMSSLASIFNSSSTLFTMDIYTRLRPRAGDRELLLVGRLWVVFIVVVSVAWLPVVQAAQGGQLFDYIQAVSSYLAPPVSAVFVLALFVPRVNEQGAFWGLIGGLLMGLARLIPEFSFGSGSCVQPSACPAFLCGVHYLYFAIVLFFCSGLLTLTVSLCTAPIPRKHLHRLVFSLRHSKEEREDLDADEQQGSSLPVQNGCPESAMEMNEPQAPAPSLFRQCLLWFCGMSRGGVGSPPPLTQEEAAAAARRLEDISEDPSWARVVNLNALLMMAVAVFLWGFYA

[1] = T2D patients with high risk of cardiovascular disease events, versus the placebo group

Cc1ccc([C@@H]2O[C@H](CO)[C@@H](O)[C@H](O)[C@H]2O)cc1Cc1ccc(-c2ccc(F)cc2)s1 [canagliflozin]
selectivity for SGLT2 compared to SGLT1 (SGLT2): least selective

OCC1O[C@@H](c2ccc(Cl)c(Cc3ccc(O[C@@H]4CCOC4)cc3)c2)C(O)C(O)[C@@H]1O (stereo partly drawn) [empagliflozin]
relative risk reduction in death from cardiovascular causes [1]: 38%
selectivity for SGLT2 compared to SGLT1 (SGLT2): greatest selectivity
